Source: US9809532B2, “Uses of histone acetyltransferase activators” (THE TRUSTEES OF COLUMBIA UNIVERSITY IN THE CITY OF NEW YORK, priority 2011, dated 2017)
Values joined by “and” are separate entries in the source; they are usually repeats but may differ in a detail not shown here. Equal values may be shown once. Read-outs that look alike come from different tables or passages of the source.

Columns and labels:
[1] = system: ACH3 (acetylated histone H3); experiment: Western blotting for ACH3 in hippocampus after administration; assay type: in vivo, mice
Method: Two and four hrs after its administration, the mice were sacrificed and hippocampi were extracted. […] Purity was verified through Nuclear Magnetic Resonance (NMR) spectroscopy. […] Hippocampus extraction was made at 3 different time points (0.5, 1 and 2 hrs post treatment). A western blotting for ACH3 was then performed.

[2] = Acute toxicity experiments; assay type: in vivo; details: i.p.
Sirtuin 2 = biological target: T1, Sirtuin 2 (Homo sapiens, UniProt Q8IXJ6); experiment: Sirtuin 2 activity assay (fluorescence); details: Compound 1 Log [nM] 4.0; Repeat1/Repeat2
T1 sequence (Q8IXJ6 1-389): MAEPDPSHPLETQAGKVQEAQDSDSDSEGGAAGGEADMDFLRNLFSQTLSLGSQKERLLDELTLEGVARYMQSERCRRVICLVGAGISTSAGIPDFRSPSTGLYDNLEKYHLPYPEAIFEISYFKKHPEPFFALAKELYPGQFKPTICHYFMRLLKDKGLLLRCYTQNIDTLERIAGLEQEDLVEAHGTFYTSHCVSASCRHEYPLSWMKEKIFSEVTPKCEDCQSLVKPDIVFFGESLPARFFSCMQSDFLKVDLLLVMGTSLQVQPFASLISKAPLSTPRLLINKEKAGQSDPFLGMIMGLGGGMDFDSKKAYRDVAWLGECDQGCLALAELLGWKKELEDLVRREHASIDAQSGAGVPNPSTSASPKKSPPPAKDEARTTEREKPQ

Oral pharmacokinetics = assay type: in vivo; details: for Kp: brain/plasma
[3] = system: HDAC 1, 3, 5, 6, 7, 8, 10, 11, and sirt1-2; experiment: HDAC activity assays, summary over the panel; assay type: biochemical; details: HDAC 1, 3, 5, 6, 7, 8, 10, 11, sirt1-2
Method: Assay Conditions. A series of dilution of the test compounds were prepared with 10% DMSO in assay buffer and 5 μl of the dilution was added to a 50 μl reaction so that the final concentration of DMSO is 1% in all of reactions. All of the enzymatic reactions were conducted in duplicate at 37° C. for 30 minutes except of HDAC11 at room temperature for 3 hours. The 50 μl reaction mixture contains HDAC assay buffer, 5 μg BSA, an HDAC substrate, an HDAC enzyme and a test compound. After enzymatic reactions, 50 μl of HDAC Developer was added to each well and the plate was incubated at room temperature for an additional 20 minutes. Fluorescence intensity was measured at an excitation of 360 nm and an emission of 460 nm using a Tecan Infinite M1000 microplate reader.
Data Analysis. HDAC activity assays were performed in duplicates at each concentration. The fluorescent intensity data were analyzed using the computer software, Graphpad Prism. In the absence of the compound, the fluorescent intensity (Ft) in each data set was defined as 100% activity. In the absence of HDAC, the fluorescent intensity (Fb) in each data set was defined as 0% activity. […] The percent activity in the presence of each compound was calculated according to the following equation: % activity=(F−Fb)/(Ft−Fb), where F=the fluorescent intensity in the presence of the compound. […]

[4] = Pharmacokinetics and BBB penetration after i.p. and i.v. administration (LC-MS/MS); assay type: in vivo, BALB/c mice; details: 20 mg/kg; for Kp: brain/plasma
Method: After i.p. and i.v. administration at 20 mg/kg to BALB/c mice, plasma and brain concentrations were determined by LC-MS/MS.

[5] = system: histone lysines H3K4, H3K9, H3K14, H4K5, H4K8, H4K12, H4K16, and H2B; experiment: Histone acetylation in mouse hippocampus (WB analysis); assay type: in vivo; details: for acetylation of histone lysines (H3, H4, H2B) in hippocampus: 20 mg/Kg i.p., 30 min, FIG. 22
Method: The compound was i.p. administered at 20 mg/Kg, mice were sacrificed 30 min later, and hippocampi were removed and quickly frozen for WB analysis.

human PCAF = human PCAF (Homo sapiens, UniProt Q92831); experiment: PCAF activation, in vitro assay; assay type: biochemical
Chain of human PCAF (Q92831 whole entry): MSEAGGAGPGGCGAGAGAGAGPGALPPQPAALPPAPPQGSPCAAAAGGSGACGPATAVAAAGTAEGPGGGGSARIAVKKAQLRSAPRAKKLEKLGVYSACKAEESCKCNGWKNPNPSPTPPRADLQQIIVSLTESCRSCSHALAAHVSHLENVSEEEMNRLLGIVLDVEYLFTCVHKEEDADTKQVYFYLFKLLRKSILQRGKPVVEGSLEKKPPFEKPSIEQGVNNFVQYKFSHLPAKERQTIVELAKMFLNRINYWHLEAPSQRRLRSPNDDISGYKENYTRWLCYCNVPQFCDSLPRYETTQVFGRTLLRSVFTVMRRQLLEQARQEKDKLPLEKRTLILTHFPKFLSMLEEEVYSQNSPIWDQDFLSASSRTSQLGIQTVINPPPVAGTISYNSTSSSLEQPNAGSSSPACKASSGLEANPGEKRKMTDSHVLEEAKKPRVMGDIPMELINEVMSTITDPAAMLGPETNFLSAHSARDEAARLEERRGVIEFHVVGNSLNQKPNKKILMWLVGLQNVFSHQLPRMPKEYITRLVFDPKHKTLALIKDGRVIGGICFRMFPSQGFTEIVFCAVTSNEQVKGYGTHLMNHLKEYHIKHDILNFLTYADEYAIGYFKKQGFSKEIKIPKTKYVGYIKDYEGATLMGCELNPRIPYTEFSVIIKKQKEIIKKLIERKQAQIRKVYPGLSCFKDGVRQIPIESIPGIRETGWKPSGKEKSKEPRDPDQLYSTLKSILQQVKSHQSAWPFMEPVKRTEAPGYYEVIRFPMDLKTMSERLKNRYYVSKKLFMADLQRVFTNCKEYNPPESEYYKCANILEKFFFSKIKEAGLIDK

[6] = Chronic administration, adverse effects; assay type: in vivo; details: 45 days, i.p., daily, 20 mg/kg
human p300 = human p300 (Homo sapiens, UniProt Q09472); experiment: p300 activation, in vitro assay; assay type: biochemical
Chain of human p300 (Q09472 whole entry): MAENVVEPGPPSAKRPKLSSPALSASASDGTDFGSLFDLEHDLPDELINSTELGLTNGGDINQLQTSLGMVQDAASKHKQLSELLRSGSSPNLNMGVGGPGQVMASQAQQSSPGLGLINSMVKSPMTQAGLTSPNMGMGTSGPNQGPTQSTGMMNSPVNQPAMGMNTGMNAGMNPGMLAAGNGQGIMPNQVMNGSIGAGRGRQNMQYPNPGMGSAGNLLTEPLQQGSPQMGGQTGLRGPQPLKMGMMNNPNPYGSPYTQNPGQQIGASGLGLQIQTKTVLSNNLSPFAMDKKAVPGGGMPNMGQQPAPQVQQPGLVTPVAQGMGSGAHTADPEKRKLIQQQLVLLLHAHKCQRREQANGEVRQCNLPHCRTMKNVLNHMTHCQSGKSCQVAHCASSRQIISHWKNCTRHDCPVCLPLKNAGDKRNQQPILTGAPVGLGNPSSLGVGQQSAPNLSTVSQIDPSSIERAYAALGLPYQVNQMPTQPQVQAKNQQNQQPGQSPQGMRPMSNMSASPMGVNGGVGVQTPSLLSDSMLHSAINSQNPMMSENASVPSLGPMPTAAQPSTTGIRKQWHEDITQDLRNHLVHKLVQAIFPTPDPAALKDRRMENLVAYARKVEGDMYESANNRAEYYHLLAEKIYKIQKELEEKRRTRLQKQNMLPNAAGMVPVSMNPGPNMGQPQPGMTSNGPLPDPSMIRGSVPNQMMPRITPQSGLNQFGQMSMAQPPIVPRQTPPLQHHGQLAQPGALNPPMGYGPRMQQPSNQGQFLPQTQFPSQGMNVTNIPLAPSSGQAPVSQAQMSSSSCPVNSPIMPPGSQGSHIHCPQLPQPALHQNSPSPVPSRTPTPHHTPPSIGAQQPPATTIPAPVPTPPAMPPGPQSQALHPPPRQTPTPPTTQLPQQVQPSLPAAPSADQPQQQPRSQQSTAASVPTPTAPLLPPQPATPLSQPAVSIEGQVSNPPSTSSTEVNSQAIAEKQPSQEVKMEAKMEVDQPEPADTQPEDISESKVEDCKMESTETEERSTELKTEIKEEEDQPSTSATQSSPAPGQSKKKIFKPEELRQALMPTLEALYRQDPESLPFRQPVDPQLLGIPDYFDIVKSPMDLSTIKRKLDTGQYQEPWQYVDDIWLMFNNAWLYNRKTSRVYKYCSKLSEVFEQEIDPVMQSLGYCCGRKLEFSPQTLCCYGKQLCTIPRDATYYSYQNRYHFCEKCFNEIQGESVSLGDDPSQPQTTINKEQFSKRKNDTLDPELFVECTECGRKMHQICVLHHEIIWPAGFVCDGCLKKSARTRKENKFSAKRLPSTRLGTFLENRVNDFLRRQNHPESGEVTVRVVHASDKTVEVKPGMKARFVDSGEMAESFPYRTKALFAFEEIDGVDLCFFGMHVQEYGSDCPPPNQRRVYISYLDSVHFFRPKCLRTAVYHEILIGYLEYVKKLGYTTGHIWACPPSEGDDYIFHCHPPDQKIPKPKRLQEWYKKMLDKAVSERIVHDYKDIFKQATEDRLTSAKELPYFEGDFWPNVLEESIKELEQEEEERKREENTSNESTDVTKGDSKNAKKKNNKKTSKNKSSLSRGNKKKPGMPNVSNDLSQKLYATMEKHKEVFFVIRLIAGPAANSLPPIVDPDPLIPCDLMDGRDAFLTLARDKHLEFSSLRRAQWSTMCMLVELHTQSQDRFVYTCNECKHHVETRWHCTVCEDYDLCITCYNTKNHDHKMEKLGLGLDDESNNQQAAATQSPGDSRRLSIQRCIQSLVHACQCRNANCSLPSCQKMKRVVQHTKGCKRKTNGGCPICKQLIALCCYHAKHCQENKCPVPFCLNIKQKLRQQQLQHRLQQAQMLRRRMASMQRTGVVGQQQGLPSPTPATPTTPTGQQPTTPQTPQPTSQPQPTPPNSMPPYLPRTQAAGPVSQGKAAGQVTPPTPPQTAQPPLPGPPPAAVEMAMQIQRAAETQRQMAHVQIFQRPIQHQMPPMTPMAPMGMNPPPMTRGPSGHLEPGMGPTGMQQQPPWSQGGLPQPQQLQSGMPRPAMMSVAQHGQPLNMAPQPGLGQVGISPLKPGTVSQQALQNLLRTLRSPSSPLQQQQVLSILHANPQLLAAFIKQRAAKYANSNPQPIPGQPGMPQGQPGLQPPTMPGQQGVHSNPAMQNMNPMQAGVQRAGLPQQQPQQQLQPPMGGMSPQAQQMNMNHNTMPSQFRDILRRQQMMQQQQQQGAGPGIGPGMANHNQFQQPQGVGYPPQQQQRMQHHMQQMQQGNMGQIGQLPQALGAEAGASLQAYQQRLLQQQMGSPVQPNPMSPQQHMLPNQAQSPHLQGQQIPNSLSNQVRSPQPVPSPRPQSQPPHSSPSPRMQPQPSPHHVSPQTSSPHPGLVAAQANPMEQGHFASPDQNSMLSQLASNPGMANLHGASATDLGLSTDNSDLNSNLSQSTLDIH

With CCOc1cccc(OCCN(C)C)c1C(=O)Nc1ccc(Cl)c(C(F)(F)F)c1 [Compound 1] the ACH3 in hippocampus ([1]; 50 mg/kg i.p., 2 and 4 hrs, FIG. 1) was “increase ACH3”, the “ACH3 levels in hippocampus” value ([1]; 5, 10, 20 mg/Kg i.p. in saline, 0.5, 1, 2 hrs, except 1 hr-10 mg/kg, FIG. 2) was “dramatically increased ACH3 levels” and the “dose without any adverse effects, acute toxicity” value [2] was “up to 300 mg/kg”. The “% Activity (Sirtuin 2)” value (Sirtuin 2) was 97.71%, the Kp (Oral pharmacokinetics; po, read-out: AUC0-t ratio brain/plasma) was 6.6 and the Kp (Oral pharmacokinetics; po, read-out: AUC0-∞ ratio brain/plasma) was 6.5. The Kp (Oral pharmacokinetics; po, read-out: Cmax ratio brain/plasma) was 5.7, the “amount in the brain compared with plasma” value (Oral pharmacokinetics; dosed orally, FIG. 17) was “higher than that in the plasma” and the AUC0-t (Oral pharmacokinetics; oral, brain) was 2149 ng·h/g. The “AUC0-∞” value (Oral pharmacokinetics; oral, brain) was 2159 ng·h/g, the Cmax (Oral pharmacokinetics; oral, brain) was 1010 ng/g and the MRT (Oral pharmacokinetics; oral, brain) was 101 min. The Tmax (Oral pharmacokinetics; oral, brain) was 60 min, the half-life (Oral pharmacokinetics; oral, brain, read-out: t1/2 (converted)) was 59.4 min and the AUC(0-inf) (Oral pharmacokinetics; oral, plasma) was 330 ng·h/mL. It also gave a Cmax (Oral pharmacokinetics; oral, plasma) of 177 ng/mL, an MRT (Oral pharmacokinetics; oral, plasma) of 90 min and a Tmax (Oral pharmacokinetics; oral, plasma) of 30 min. It also gave an AUC0-t (Oral pharmacokinetics; oral, plasma, read-out: AUC0-t) of 328 ng·h/mL, a half-life (Oral pharmacokinetics; oral, plasma, read-out: t1/2 (converted)) of 63.6 min and a half-life (Oral pharmacokinetics; po, brain and plasma, read-out: elimination half-lives in the brain and plasma) of ~60 min. The “HDAC inhibition (in words)” value [3] was “does not inhibit HDACs”, the “HDAC inhibition (in words)” value ([3]; listed as compound 1) was “did not interfere with p300 and HDAC activity” and the Kp ([4]; BALB/c, mouse, ip, IP, read-out: AUC0-t ratio brain/plasma) was 8.2. For the same molecule, the Kp ([4]; BALB/c, mouse, ip, IP, read-out: AUC0-∞ ratio brain/plasma) was 8.1, the Kp ([4]; BALB/c, mouse, ip, IP, read-out: Cmax ratio brain/plasma) was 5.8 and the Kp ([4]; BALB/c, mouse, iv, IV, read-out: AUC0-t ratio brain/plasma) was 10.8. The Kp ([4]; BALB/c, mouse, iv, IV, read-out: AUC0-∞ ratio brain/plasma) was 11.2, the Kp ([4]; BALB/c, mouse, iv, IV, read-out: Cmax ratio brain/plasma) was 13.1 and the Tmax ([4]; BALB/c, mouse, intraperitoneal, brain, read-out: Tmax in the brain (converted)) was 15 min. It also gave a half-life ([4]; BALB/c, mouse, ip, i.p., brain and plasma, read-out: elimination half-lives in the brain and plasma) of ~40 min, a Cmax ([4]; BALB/c, mouse, IP, brain) of 4880 ng/g and an MRT ([4]; BALB/c, mouse, IP, brain) of 61.8 min. For the same molecule, the Tmax ([4]; BALB/c, mouse, IP, brain, read-out: Tmax) was 15 min, the half-life ([4]; BALB/c, mouse, IP, brain, read-out: t½ (converted)) was 37.8 min and the AUC(0-inf) ([4]; BALB/c, mouse, IP, plasma) was 813 ng·h/mL. It also gave a Cmax ([4]; BALB/c, mouse, IP, plasma) of 843 ng/mL, an MRT ([4]; BALB/c, mouse, IP, plasma) of 51 min and an AUC0-t ([4]; BALB/c, mouse, IP, plasma, read-out: AUC0-t) of 806 ng·h/mL. The Tmax ([4]; BALB/c, mouse, IP, plasma, read-out: Tmax) was 15 min, the half-life ([4]; BALB/c, mouse, IP, plasma, read-out: t½ (converted)) was 36 min and the Cmax ([4]; BALB/c, mouse, IV, brain) was 27900 ng/g. It also gave an MRT ([4]; BALB/c, mouse, IV, brain) of 44.4 min, a Tmax ([4]; BALB/c, mouse, IV, brain, read-out: Tmax) of 7.5 min and a half-life ([4]; BALB/c, mouse, IV, brain, read-out: t½ (converted)) of 37.8 min. For the same molecule, the AUC(0-inf) ([4]; BALB/c, mouse, IV, plasma) was 2020 ng·h/mL, the Cmax ([4]; BALB/c, mouse, IV, plasma) was 2130 ng/mL and the MRT ([4]; BALB/c, mouse, IV, plasma) was 50.4 min. For the same molecule, the AUC0-t ([4]; BALB/c, mouse, IV, plasma, read-out: AUC0-t) was 1970 ng·h/mL, the Tmax ([4]; BALB/c, mouse, IV, plasma, read-out: Tmax) was 7.5 min and the half-life ([4]; BALB/c, mouse, IV, plasma, read-out: t½ (converted)) was 42 min. For the same molecule, the AUC0-t ([4]; IP, brain) was 6493 ng·h/g, the “AUC0-∞” value ([4]; IP, brain) was 6564 ng·h/g and the F ([4]; IP, brain) was 29.2%. For the same molecule, the F ([4]; IP, plasma) was 41.0%, the AUC0-t ([4]; IV, brain) was 22222 ng·h/g and the “AUC0-∞” value ([4]; IV, brain) was 22581 ng·h/g. The “amount in the brain compared with plasma” value ([4]; i.p. and i.v.) was “higher than that in the plasma”, the “acetylation of histone lysines (H3, H4, H2B) in hippocampus” value [5] was “increased acetylation of histone lysines” and the “acetylation of histone lysines (H3, H4, H2B) in hippocampus” value ([5]; listed as YF2) was “increased specific acetylation of H3, H4, and H2B”. The “crossing of the BBB” value ([5]; i.p., western blot, FIG. 21) was “crosses the BBB”, the “histone 3 acetylation levels of the hippocampus” value ([5]; i.p., western blot, FIG. 21) was “increases histone 3 acetylation levels” and the EC50 (human PCAF) was 29 µM and 18.1 µM. The “adverse effects on chronic administration” value [6] was “did not have adverse effects”, the “effect on p300 activity” value (human p300) was “increases p300 activity” and the EC50 (human p300; FIG. 16) was 0.79 µM. The “effect on p300 activity” value (human p300; listed as compound 1) was “did not interfere with p300”.
